Assay results from US10766857B2, “Compound having BLT inhibitory activity and composition, for preventing or treating inflammatory diseases, comprising same as active ingredient” (DONGGUK UNIVERSITY INDUSTRY-ACADEMIC COOPERATION FOUNDATION, priority 2015, dated 2020).

Legend:
Format in all cases: cell-based
MDA-MB-231 cells [1] = test: IL-8 expression (RT-PCR)
Procedure: (§1) The breast cancer cells such as the MDA-MB-231 cells were obtained from Korean Cell Line Bank (Seoul, Korea), and the MDA-MB-435 cells were provided by J. H. Lee (Asan Medical Center, Seoul, Korea). These cells were cultured in an RPMI 1640 medium (Invitrogen) containing 10% FBS (Life Technologies, Inc.), 1% penicillin (50 units/mL), and an antibiotic antimycotic solution (Life Technologies, Inc.) at 37° C. under a 5% CO2 condition.
(§2) To confirm the IL-8 expression according to the treatment of the compound of the present invention, total RNA was isolated from cells using Easy Blue (Intron, Sungnam, Korea), and quantified by absorbance at 260 nm. Complementary DNA (cDNA) was synthesized with the RNA (1.25 μg) through reverse transcription using a polymerase chain reaction (PCR) technique. An expression level was determined using primers specifically binding to IL-8 and glyceraldehyde-3-phosphate dehydrogenase (GAPDH).

MDA-MB-435 cells [2] = test: IL-8 expression (RT-PCR)
Procedure: as §1, §2

MDA-MB-231 cells [3] = test: Intracellular ROS generation (DCF fluorescence); settings: 30 minutes treatment
Procedure: as §1
(§3) Intracellular ROS (H2O2) generated according to the treatment of the compound of the present invention (LMT-696) was measured as a function of DCF fluorescence. Specifically, before ROS measurement, 2×10^5 cells were grown in 60-mm wells, and cultured in a FBS-supplemented RPMI 1640 medium for 24 hours. To evaluate the effect of the compound of the present invention, the cells were treated with the compound (LMT-696) for 30 minutes. To measure the intracellular ROS, the cells were cultured with 20 μM of a H2O2-sensitive fluorescent material such as H2DCFDA [Molecular Probes (Eugene, Oreg.)] at 37° C. in a dark and humidified CO2 incubator for 20 minutes. […] A DCF fluorescent degree was measured with excitation and emission wavelengths at 488 and 530 nm, respectively, using a FACS Calibur flow cytometer (Becton Dickinson, N.J.).

MDA-MB-435 cells [4] = test: Intracellular ROS generation (DCF fluorescence); settings: 30 minutes treatment
Procedure: as §1, §3

CCCCC(=O)N(CC#Cc1ccc(C(=O)N2CCN(C(C)C)CC2)cc1)c1ccccc1 [LMT-696, N-(3-(4-(4-isopropylpiperazine-1-carbonyl)phenyl)prop-2-ynyl)-N-phenylpentaneamide]
IL-8 expression level (MDA-MB-231 cells [1]): significantly inhibited
IL-8 expression level (MDA-MB-435 cells [2]): significantly inhibited
inhibition of ROS generation (MDA-MB-231 cells [3]): significant inhibition
inhibition of ROS generation (MDA-MB-435 cells [4]): significant inhibition
